According to patent publication US20260274835A1, “A3 ADENOSINE RECEPTOR POSITIVE ALLOSTERIC MODULATORS” (The Medical College of Wisconsin, Inc., priority 2022, published 2026):

Biological target: T1, WT hA3ARs (Homo sapiens, UniProt P0DMS8)
T1 construct: The full-length mouse (as previously described^25), human (purchased from the cDNA Resource Center), and human/mouse chimeric
T1 sequence (P0DMS8 1-318): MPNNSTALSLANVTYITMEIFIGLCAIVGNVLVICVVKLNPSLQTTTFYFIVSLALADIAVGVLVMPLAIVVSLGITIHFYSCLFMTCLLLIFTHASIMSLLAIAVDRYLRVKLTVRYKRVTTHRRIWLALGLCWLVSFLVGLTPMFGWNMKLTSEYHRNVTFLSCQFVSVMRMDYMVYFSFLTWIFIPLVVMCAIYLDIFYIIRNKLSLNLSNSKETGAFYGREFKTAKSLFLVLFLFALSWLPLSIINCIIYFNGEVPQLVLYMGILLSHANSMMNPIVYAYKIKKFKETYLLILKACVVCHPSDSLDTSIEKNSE
Experiment: [35S]GTPγS binding assay, Cl-IB-MECA concentration-response with modulator, HEK293 cell membranes
Type: biochemical
Details: for Emax (%): PAM derivative 1.0 μM, [35S]GTPγS binding induced by Cl-IB-MECA, WT hA3ARs, mean ± SEM, n = 3; for Emax (%) / IC50 ratio: Table 3; for IC50 ratio: ratio of IC50 values for Cl-IB-MECA, DMSO control compared to 100 nM PAM derivative
Excerpt: Creation of stable HEK293 cell lines expressing wild-type and human/mouse chimeric A3ARs: The full-length mouse (as previously described^25), human (purchased from the cDNA Resource Center), and human/mouse chimeric (custom synthesized by TOP Gene Technologies, St. Laurent, Quebec) A3AR cDNAs were subcloned into pcDNA3.1. The constructs were transfected into HEK293 cells (American Type Culture Collection, Manassas, VA) using Lipofectamine 2000 reagent (Invitrogen, Waltham, MA) and selected with 2 mg/ml of G418 in cell culture media (DMEM with 10% fetal bovine serum, 100 units/ml penicillin, and 100 μg/ml streptomycin). Cell lines derived from individual clones were maintained in cell culture media containing 0.6 mg/ml G418.
Membrane preparations: Transfected HEK293 cells were washed with PBS followed by homogenization in Buffer A containing 10 mM Na+-HEPES, 10 mM EDTA, 1 mM benzamidine (pH 7.4) and centrifugation at 27,000×g for 30 min at 4° C. Cell pellets were subsequently re-homogenized in HE buffer containing 10 mM Na+-HEPES, 1 mM EDTA, 1 mM benzamidine (pH 7.4) and re-centrifuged. The supernatant was discarded, and cell pellets were resuspended in HE buffer containing 10% sucrose and stored at −20° C.
[^35S]GTPγS binding assays: Cell membranes (5 μg protein) isolated from transfected HEK293 cells were pre-treated with modulators for one hour in 100 μl GTPγS binding buffer (50 mM Tris HCL [pH 7.4], 1 mM EGTA, 10 mM MgCl2, 100 mM NaCl, 0.004% CHAPS, and 0.5% BSA) in a 96-well large-volume polypropylene assay plate. In all assays, ZM-241385 (300 nM) and PSB-603 (300 nM) were included to block A2BARs expressed endogenously in HEK293 cells. Adenosine deaminase (ADA) (1 μl/ml) was also included to degrade any endogenous adenosine that might be produced during the assay, except when adenosine was used as the orthosteric agonist. The reactions were initiated by the addition of ~0.2 nM [^35S]GTPγS and agonist in 100 μl GTPγS binding buffer and allowed to incubate for two hours at room temperature. At the end of the two-hour incubation period, the membranes were harvested by rapid filtration through Whatman GF/B filters that had been pre-soaked for two hours in GTPγS binding buffer containing 0.02% CHAPS using a 96-well cell harvester (Brandel, Gaithersburg, MD). Radioactivity trapped in the filters was measured by liquid scintillation counting. Non-specific binding of [^35S]GTPγS was determined in the presence of 10 μM unlabeled GTPγS.
Data Analysis: EMax and EC50 values were calculated from data obtained from agonist concentration-response curves according to: E=([…])/(EC50+x), in which x is the agonist concentration. All values were statistically compared using a two-tailed unpaired Student's t-test or two-tailed paired Student's t-test, as indicated. For dissociation binding assays, fit to a one-phase exponential decay model: Y=(Y0−NS)^(−kxt), in which Y0 is specific binding at time 0, k is the dissociation rate constant, and t is the elapsed time. All values are presented as the mean±SEM. A p value <0.05 was considered statistically significant.
The two series of modulators were evaluated in a [^35S]GTPγS binding assay using isolated HEK293 cell membranes expressing the h A3AR, which detects receptor-induced G protein activation. For these studies, concentration-response curves with the orthosteric agonist Cl-IB-MECA were assessed in the presence of vehicle or 0.1, 1, or 10 μM modulator compound.

[1] = increasing concentrations of modulator (0.1, 1, 10 μM)

| Structure (SMILES) | Emax (%) | IC50 ratio | effect on EC50 (potency) of agonist Cl-IB-MECA, in words [1] | effect on Emax (efficacy) of agonist Cl-IB-MECA, in words [1] |
| --- | --- | --- | --- | --- |
| Cn1c(C2CCCCC2)nc2c(Nc3ccc(Cl)c(Cl)c3)nc3ccccc3c21 [35 (MRS8206)] | 177.8 ± 11.5 | 1.12 |  |  |
| OCCn1c(C2CCCCC2)nc2c(Nc3ccc(Cl)c(Cl)c3)nc3ccccc3c21 [36 (MRS8236)] | 119.3 ± 6.2 | 0.764 |  |  |
| Clc1ccc(Nc2nc3ccccc3c3oc(C4CCCCC4)nc23)cc1Cl [41 (RK005-84-1, BS1002)] | 149.9 ± 8.8 | 0.406 |  |  |
| Clc1ccc(Nc2nc3ccccc3c3sc(C4CCCCC4)nc23)cc1Cl [42 (RK005-79-1, BS1001)] | 192.6 ± 11.2 | 0.505 |  |  |
| CN(c1ccc(Cl)c(Cl)c1)c1nc2ccccc2c2[nH]c(C3CCCCC3)nc12 [45 (RK006-100-1, BS1007)] | 127.0 ± 6.0 | 0.491 |  |  |
| Clc1ccc(Oc2nc3ccccc3c3[nH]c(C4CCCCC4)nc23)cc1Cl [46 (RK007-4-1, BS1006)] | 150.6 ± 5.8 | 0.738 |  |  |
| Clc1ccc(Sc2nc3ccccc3c3[nH]c(C4CCCCC4)nc23)cc1Cl [47 (RK007-2-1, BS1005)] | 137.6 ± 7.3 | 1.11 |  |  |
| O=C(Nc1cc(Nc2ccc(Cl)c(Cl)c2)nc2ccccc12)C1CCCCC1 [LUF6096, reference compound] |  |  | without reducing the potency of CI-IB-MECA | produced the greatest increase in efficacy |
